Toxic doses and inconclusive results are not listed. No stated cut-off is given here; in the data, active means T/C of 150% or more; inactive means T/C below 125%.
Tested on: L1210 leukemia ip in BDF1 mice, survival T/C
Assay: NCI In Vivo Anticancer Drug Screen. Data for tumor model L1210 Leukemia (intraperitoneal) in B6D2F1 (BDF1) mice
Conditions: endpoint: mean survival time, higher = longer survival
Summary of the method: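 In this screen, tumor-bearing mice given compound are compared to those given vehicle, and their survival values are reported as a treated-to-control quotient.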

[1] = dose: 50.0 mg/kg/injection, schedule: Q01DX009 (ip), vehicle: saline
[2] = dose: 100.0 mg/kg/injection, schedule: Q01DX009 (ip), vehicle: saline
[3] = dose: 200.0 mg/kg/injection, schedule: Q01DX009 (ip), vehicle: saline
[4] = dose: 25.0 mg/kg/injection, schedule: Q04DX002 (ip), vehicle: saline with Tween-80
[5] = dose: 100.0 mg/kg/injection, schedule: Q04DX002 (ip), vehicle: saline with Tween-80
[6] = dose: 100.0 mg/kg/injection, schedule: Q04DX003 (ip), vehicle: saline
[7] = dose: 200.0 mg/kg/injection, schedule: Q04DX003 (ip), vehicle: saline
[8] = dose: 400.0 mg/kg/injection, schedule: Q01DX009 (ip), vehicle: saline
[9] = dose: 400.0 mg/kg/injection, schedule: Q04DX003 (ip), vehicle: saline
[10] = dose: 100.0 mg/kg/injection, schedule: Q01DX001 (ip), vehicle: saline
[11] = dose: 200.0 mg/kg/injection, schedule: Q01DX001 (ip), vehicle: saline
[12] = dose: 400.0 mg/kg/injection, schedule: Q01DX001 (ip), vehicle: saline
[13] = dose: 50.0 mg/kg/injection, schedule: Q01DX009 (ip), vehicle: Klucel (hydroxypropylcellulose) (HPC)
[14] = dose: 100.0 mg/kg/injection, schedule: Q01DX009 (ip), vehicle: Klucel (hydroxypropylcellulose) (HPC)
[15] = dose: 100.0 mg/kg/injection, schedule: Q01DX001 (ip), vehicle: carboxymethylcellulose (CMC)
[16] = dose: 100.0 mg/kg/injection, schedule: Q04DX003 (ip), vehicle: Klucel (hydroxypropylcellulose) (HPC)
[17] = dose: 200.0 mg/kg/injection, schedule: Q01DX001 (ip), vehicle: carboxymethylcellulose (CMC)
[18] = dose: 200.0 mg/kg/injection, schedule: Q04DX003 (ip), vehicle: Klucel (hydroxypropylcellulose) (HPC)
[19] = dose: 400.0 mg/kg/injection, schedule: Q01DX001 (ip), vehicle: carboxymethylcellulose (CMC)
[20] = dose: 400.0 mg/kg/injection, schedule: Q04DX003 (ip), vehicle: Klucel (hydroxypropylcellulose) (HPC)
[21] = dose: 100.0 mg/kg/injection, schedule: Q04DX002 (ip), vehicle: saline
[22] = dose: 200.0 mg/kg/injection, schedule: Q04DX002 (ip), vehicle: saline
[23] = dose: 400.0 mg/kg/injection, schedule: Q04DX002 (ip), vehicle: saline
[24] = dose: 50.0 mg/kg/injection, schedule: Q01DX009 (ip), vehicle: saline with Tween-80
[25] = dose: 100.0 mg/kg/injection, schedule: Q01DX009 (ip), vehicle: saline with Tween-80
[26] = dose: 12.5 mg/kg/injection, schedule: Q01DX009 (ip), vehicle: saline
[27] = dose: 25.0 mg/kg/injection, schedule: Q01DX009 (ip), vehicle: saline
[28] = dose: 50.0 mg/kg/injection, schedule: Q01DX001 (ip), vehicle: saline
[29] = dose: 100.0 mg/kg/injection, schedule: Q04DX003 (ip), vehicle: saline with Tween-80
[30] = dose: 200.0 mg/kg/injection, schedule: Q04DX003 (ip), vehicle: saline with Tween-80
[31] = dose: 400.0 mg/kg/injection, schedule: Q04DX003 (ip), vehicle: saline with Tween-80

Measured: T/C

CCCCCCCCCCC/C=N/NC(=O)c1ccc[n+](C)c1
inactive: [1] 108 % of control | [2] 108 % of control | [3] 110 % of control

O=C1OC(O)C(Cl)=C1Cl (stereo not given)
inactive: dose: 6.25 mg/kg/injection, schedule: Q04DX002 (ip), vehicle: saline with Tween-80 107 % of control | dose: 12.5 mg/kg/injection, schedule: Q04DX002 (ip), vehicle: saline with Tween-80 103 % of control | [4] 114 % of control

O=C1C=CC(c2ccccc2)(c2ccccc2)C=C1
inactive: [4] 93 % of control | dose: 50.0 mg/kg/injection, schedule: Q04DX002 (ip), vehicle: saline with Tween-80 101 % of control | [5] 96 % of control

CNC(=Nc1ccc(NC(=O)NC(=O)c2ccc(C(=O)NC(=O)Nc3ccc(N=C(NC)c4ccccc4)cc3)cc2)cc1)c1ccccc1
inactive: dose: 62.0 mg/kg/injection, schedule: Q01DX Z (ip), vehicle: carboxymethylcellulose (CMC) 88 % of control | dose: 125.0 mg/kg/injection, schedule: Q01DX Z (ip), vehicle: carboxymethylcellulose (CMC) 104 % of control | dose: 250.0 mg/kg/injection, schedule: Q01DX Z (ip), vehicle: carboxymethylcellulose (CMC) 92 % of control | dose: 500.0 mg/kg/injection, schedule: Q01DX Z (ip), vehicle: carboxymethylcellulose (CMC) 95 % of control

CC(N)=O.CC(N)=O.Nc1ccnc(=O)[nH]1.[Cl][Pt]
inactive: [2] 110 % of control | [6] 114 % of control | [3] 114 % of control | [7] 116 % of control | [8] 101 % of control | [9] 119 % of control

NC(Cc1ccc(O)c(O)c1)C(=O)O (stereo not given)
inactive: [10] 93 % of control | [11] 95 % of control | [12] 97 % of control

CC1(C)OCC(C(OC(=O)c2ccc([N+](=O)[O-])cc2)C(OC(=O)c2ccc([N+](=O)[O-])cc2)C2COC(C)(C)O2)O1 (stereo not given)
inactive: dose: 100.0 mg/kg/injection, schedule: Q01DX001 (ip), vehicle: Klucel (hydroxypropylcellulose) (HPC) 103 % of control | dose: 200.0 mg/kg/injection, schedule: Q01DX001 (ip), vehicle: Klucel (hydroxypropylcellulose) (HPC) 100 % of control | dose: 400.0 mg/kg/injection, schedule: Q01DX001 (ip), vehicle: Klucel (hydroxypropylcellulose) (HPC) 100 % of control

CCCCCCCCCCCCCCCCS(=O)CCCCCCCCCCCCCCCC
inactive: [13] 88 % of control | [14] 92 % of control

CCN(CC)C(=O)Nc1ccc([N+](=O)[O-])cc1
inactive: [15] 97 % of control | [16] 109 % of control | [17] 101 % of control | [18] 96 % of control | [19] 97 % of control | [20] 107 % of control

CCN(CC#CCOc1ccc(Br)cc1)c1ccccc1
inactive: [21] 105 % of control | [22] 101 % of control | [23] 99 % of control

CC(C)(C=O)CO
inactive: [5] 94 % of control | dose: 200.0 mg/kg/injection, schedule: Q04DX002 (ip), vehicle: saline with Tween-80 97 % of control | dose: 400.0 mg/kg/injection, schedule: Q04DX002 (ip), vehicle: saline with Tween-80 91 % of control

CC(=O)c1ccc(C(=O)O)cc1
inactive: [24] 87 % of control | [25] 115 % of control | dose: 200.0 mg/kg/injection, schedule: Q01DX009 (ip), vehicle: saline with Tween-80 94 % of control

Cc1ccc(S(=O)(=O)O)cc1
inactive: [26] 101 % of control | [27] 98 % of control | [1] 98 % of control | [2] 97 % of control | [21] 97 % of control | [6] 102 % of control | [3] 96 % of control | [22] 101 % of control | [23] 108 % of control

COc1cccc(NC(=O)c2ccc(C(=O)Nc3cccc(OC)c3)cc2)c1
inactive: [28] 98 % of control | [10] 96 % of control | [11] 91 % of control

CCC1CC(O)c2ccccc2O1 (stereo not given)
inactive: dose: 100.0 mg/kg/injection, schedule: Q01DX001 (ip), vehicle: other 103 % of control | dose: 200.0 mg/kg/injection, schedule: Q01DX001 (ip), vehicle: other 95 % of control | dose: 400.0 mg/kg/injection, schedule: Q01DX001 (ip), vehicle: other 91 % of control

C=Nc1ccc(Cl)cc1
inactive: dose: 50.0 mg/kg/injection, schedule: Q01DX001 (ip), vehicle: carboxymethylcellulose (CMC) 98 % of control | [15] 93 % of control | [17] 98 % of control

Cc1cc(C)c(C(=O)CBr)c(C)c1
inactive: [15] 112 % of control | [10] 101 % of control | [17] 106 % of control | [11] 101 % of control | [19] 101 % of control | [12] 110 % of control

COc1ccc(C(C)c2ccccc2)cc1 (stereo not given)
inactive: [29] 98 % of control | [30] 95 % of control | [31] 93 % of control

NC(=S)N/N=C\c1cc2ccccc2c2ccccc12
inactive: [28] 95 % of control | [10] 95 % of control | [11] 95 % of control | [12] 98 % of control

CCOC(=O)C(C)(OCC)OCC
inactive: [2] 103 % of control | dose: 100.0 mg/kg/injection, schedule: Q01DX009 (ip), vehicle: water 100 % of control | [6] 109 % of control | dose: 100.0 mg/kg/injection, schedule: Q04DX003 (ip), vehicle: water 97 % of control | [3] 96 % of control | dose: 200.0 mg/kg/injection, schedule: Q01DX009 (ip), vehicle: water 100 % of control | [7] 96 % of control | dose: 200.0 mg/kg/injection, schedule: Q04DX003 (ip), vehicle: water 101 % of control | [8] 88 % of control | dose: 400.0 mg/kg/injection, schedule: Q01DX009 (ip), vehicle: water 91 % of control | [9] 102 % of control | dose: 400.0 mg/kg/injection, schedule: Q04DX003 (ip), vehicle: water 97 % of control

Cc1cc(C)c(-n2c(C)nc3ccccc3c2=O)c([N+](=O)[O-])c1
inactive: dose: 12.5 mg/kg/injection, schedule: Q01DX009 (ip), vehicle: Klucel (hydroxypropylcellulose) (HPC) 96 % of control | dose: 25.0 mg/kg/injection, schedule: Q01DX009 (ip), vehicle: Klucel (hydroxypropylcellulose) (HPC) 104 % of control | [13] 89 % of control | [14] 109 % of control

CCN(CC)CCCOC(=O)c1ccc(N)cc1
inactive: [26] 103 % of control | [27] 97 % of control | [1] 98 % of control

CSc1ccc(C(O)Cc2ccc([N+](=O)[O-])cc2)cc1 (stereo not given)
inactive: [14] 96 % of control | [16] 94 % of control | dose: 200.0 mg/kg/injection, schedule: Q01DX009 (ip), vehicle: Klucel (hydroxypropylcellulose) (HPC) 97 % of control | [18] 96 % of control | dose: 400.0 mg/kg/injection, schedule: Q01DX009 (ip), vehicle: Klucel (hydroxypropylcellulose) (HPC) 100 % of control | [20] 98 % of control

ClC(Cc1ccccc1)c1ccccc1 (stereo not given)
inactive: [28] 97 % of control | [10] 97 % of control | [11] 97 % of control | [12] 97 % of control

CCCn1c(O)c(C(=O)CC)sc1=S
inactive: [24] 95 % of control | [25] 88 % of control

CC1CC(=O)c2cccc(Cl)c2N1C (stereo not given)
inactive: [16] 100 % of control | [18] 100 % of control | [20] 98 % of control

OCCOc1cccc(OCCO)c1
inactive: [29] 103 % of control | [30] 104 % of control | [31] 92 % of control

Source: PubChem BioAssay AID248 (DTP/NCI, 2004)
